Literature values in patent US8460861B2, “Method for producing hydrogen-containing fluid able to be used in a living organism” (MIZ Co. Ltd., priority 2009, dated 2013).

Details: 20 C degrees under 1 barometric pressure

saturation concentration: 1.6 ppm
Compound: [HH] [molecular hydrogen]
